Data on one compound can be found in article PMC11091243, “PD-L1 targeted peptide demonstrates potent antitumor and immunomodulatory activity in cancer immunotherapy” (Frontiers in Immunology, 2024).

For one series, the target named is T1, PD-1/PD-L1 binding (Homo sapiens, UniProt Q9NZQ7).
T1 construct: PD-1: 10377-H08H
As to the kind of experiment: ELISA competition of peptides with PD-1 for binding to PD-L1. The settings on record: n = 3, effect increases with peptide concentration. The protocol:
After seven phages were grown and purified, the solution was diluted 10 times to produce eight gradients. To ascertain the phage’s affinity for PD-L1, an ELISA test was run. Briefly, 96-well plates were filled with 150 µL of PD-L1 ([…]) in assay diluent (BioLegend, San Diego, CA), and incubated at 4°C overnight. 5% BSA in water was used to block the wells for two hours at 4°C. Following washing, 100 µL of phage diluent was added to each well, and they were shaken for two hours at room temperature. The wells were then treated with HRP-conjugated anti-M13 antibody at dose of 1:5000. With 100 µL of HRP substrate, the reaction was observed, and the OD410 was determined. By deducting the OD value of each phage binding to BSA-coated wells from the OD value of that phage binding to PD-L1, the specific binding of each phage to PD-L1 was computed. Three duplicate runs of this assay were made. GraphPad Prism 6 software was used to compute each phage binding affinity by nonlinear regression and convert it to a Scatchard plot. ELISA was used to evaluate the candidate peptides capacity to inhibit PD1/PD-L1 binding. The subsequent stages were the same as those previously outlined. Following incubation, OD410 was determined by goat anti-rabbit monoclonal antibody that had been HRP-labeled and rabbit anti-human PD-L1 protein monoclonal antibody.
To assess the effect of PPL-C peptide interference, PD-L1 binding to PD-1 was investigated using ELISA and cell-based analysis. For the ELISA, 100 μL of mouse PD-L1 in PBS was coated in each well of a 96-well plate and incubated the plate at 4°C overnight. On the second day, 1% BSA in PBST was used to block the plate. Each well was then filled with 200 nmol/L biotinylated PD-1 and FITC-labeled PPL-C peptides (at final concentrations of 40, 20, 10, 5, or 2.5 μmol/L) before 1.5 hours incubating at room temperature. After two PBST washes, the relative FITC fluorescence intensity was measured using a Cytation 3 instrument. […] After two PBST washes, the Cytation 3 device was used to detect PE fluorescence intensity. […] Samples were analyzed by flow cytometry.
On the technique in general: In an ELISA, binding on a coated surface is turned into a signal by an enzyme label.

The next series has as its system MDA-MB-231 cells. As to the kind of experiment: Flow cytometry binding to MDA-MB-231 cells. It is filed as cell-based, human. The note with it: higher PD-L1 expression than MC38. The protocol: Fluorescence-based ELISA and cell-based tests were used to examine the binding specificity of PPL-C to PD-L1. To perform the ELISA, fluorescent plates were coated with 100 μL human PD-L1 (hPD-L1), mouse PD-L1 (mPD-L1), and BSA in PBS (pH 7.4) overnight at 4°C, respectively. Blocked the plates with 1% BSA (in PBST) for an hour at room temperature and rinsed twice with PBST. Then added peptides (20 μmol/L FITC-labeled PPL-C/Control peptide) and incubated for 1.5 hours at room temperature. With excitation at 488 nm and emission at 515 nm, the Cytation 3 instrument (BioTek) was used to measure the relative fluorescence intensity. Both attached and detached cells were used in the cell-based flow cytometry analysis. […] After that, cells were treated for 40 minutes at 4°C on an inversion shaker with PD-L1 antibody from Biolegend and 4 μmol/L FITC-labeled peptides (PPL-C/Control peptide). Each tube was washed twice with PBS following incubation and flow cytometry was carried out using a FACSort device. FlowJo software was used to evaluate the data that was acquired.
(In general: Flow cytometry measures light scatter and fluorescence of single cells or particles in a stream.)

Another series has as its system Swiss mice. It is filed as in vivo, mouse. The settings on record: twice intraperitoneal 180 mg/kg (30 times effective amount), observed 14 days, data not shown.
Series [1] relates to serum cytokines of CT26-bearing mice. Nature of the series: Cytokine ELISA of serum of treated CT26-bearing mice. It is filed as in vivo, mouse. The note with it: 14 days of administration, versus untreated and control peptide groups. The protocol:
After 14 days of continuous administration, 0.5-1.0 ml of peripheral blood was collected from the mice. Serum was isolated from peripheral blood using the posterior orbital venous plexus blood collection method. The serum was obtained by centrifuging at 2000 RMP for 10 minutes. Mouse total lymphocytes were isolated from the spleen using Ficoll density gradient fractionation (Shanghai Biotech Bioengineering). In 200 μL of RIPM medium with 10% FBS, 1×10^6 tumor cells were seeded in each well with a CT26: lymphocyte ratio of 1:2 and incubated for 48 and 72 hours. Cell growth medium was harvested by centrifuging at 2000 RPM for 10 min. For the analysis of cytokine production, lymphocyte growth media served as a positive control and cell-free growth medium served as a negative control. Following the manufacturer’s instructions, the levels of IL-2, IL-4, IL-6, IL-10, TNF-α and IFN-γ in the blood and cell growth media were assessed using LEGEND MAX™ ELISA kit (BioLegend Inc, USA). Three duplicates of each experiment were carried out.

A further series has as its system CT26 cells. Nature of the series: Cytotoxicity of spleen lymphocytes of treated mice against CT26 cells (CCK8). The note with it: CT26:lymphocyte 1:2, 48 h, CCK8, n = 6, versus untreated and control peptide groups. The format is cell-based, mouse. The protocol: After 14 consecutive days of administration, total lymphocytes were isolated from mouse spleens using Ficoll density gradient fractionation, which was provided by Shanghai Biotech Bioengineering. Before co-incubation with lymphocytes, CT26 cells were treated with 100 μg/mL mitomycin C (MMC) for 2 hours for […] experiments. For cytotoxicity experiments, about 1×10^6 tumor cells were seeded in each well with a CT26: lymphocyte ratio of 1: 2 in 200 μL RIPM medium plus 10% FBS for 48 h. A corresponding negative control group was also designed. During the final two hours of the incubation, 10 µL of CCK8 reagent was added to each well following the manufacturer’s instructions (Biotech Bioengineering Cat: E606335). Using an ELISA plate reader (Molecular Devices, USA) the absorbance was determined at 450 nm. There were three duplicates of each experiment.

Structures are written as SMILES.

T1 sequence (Q9NZQ7 19-239 limits assumed): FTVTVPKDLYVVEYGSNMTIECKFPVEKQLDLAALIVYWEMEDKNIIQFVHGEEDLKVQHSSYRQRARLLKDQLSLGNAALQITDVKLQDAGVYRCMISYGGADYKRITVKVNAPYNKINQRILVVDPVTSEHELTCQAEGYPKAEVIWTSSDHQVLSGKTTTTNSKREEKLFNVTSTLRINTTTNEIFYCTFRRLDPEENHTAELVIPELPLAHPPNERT

As for `CC(C)[C@H](NC(=O)[C@H](CO)NC(=O)[C@@H](NC(=O)[C@@H](N)CO)C(C)C)C(=O)N[C@@H](CO)C(=O)N[C@@H](Cc1c[nH]cn1)C(=O)N[C@@H](Cc1ccccc1)C(=O)N[C@@H](CCC(N)=O)C(=O)N[C@@H](CCCCN)C(=O)N[C@H](C(=O)N[C@@H](Cc1c[nH]c2ccccc12)C(=O)N[C@H](C(=O)N[C@H](C(=O)NCC(=O)NCC(=O)NCC(=O)N[C@@H](CO)C(=O)N[C@@H](CCCCN)C(N)=O)C(C)C)C(C)C)C(C)C` [PPL-C], on PD-1/PD-L1 binding, the “Competition with PD-1 to bind PD-L1 (blocking of PD-L1/PD-1)” value is on record as “significant blocking effect”. Also, the “Affinity to MDA-MB-231 cells” value in the series with MDA-MB-231 cells is “higher affinity”. In addition, the Acute toxicity result in the series on Swiss mice is reported as “no acute toxicity”. Further, in series [1], the “IFN-γ, IL-2, IL-4 and IL-6 secretion in serum” value was “significantly promoted”; the “IL-10 secretion in serum” value is listed as “lower IL-10 secretion”. Moreover, the “Effect of lymphocytes from treated mice on tumor cell proliferation” value with CT26 cells is reported as “significantly inhibited tumor cell proliferation”.
